Reference: patent US20100222269A1, “IMPROVED DERIVATIVES OF AMYLIN” (priority 2007, published 2010)
Where two headings read alike, the source gives them in different places. Starred links: 1 amine or outer side, 2 acyl side, 3 side chain; linkers in the order of their positions; H or OH if unused. Positions of bridges follow the written chain, without caps; N, C: chain ends. Residues, ends and D or L forms follow the SMILES beside them. Groups on a side chain read outwards from the residue. *: point of attachment. X1 = O=C(CCCCCCCCCCCCCCCc1nnn[nH]1)NS(=O)(=O)CCCC(=O)*; C20 diacid = O=C(O)CCCCCCCCCCCCCCCCCCC(=O)*; C18 diacid = O=C(O)CCCCCCCCCCCCCCCCC(=O)*; γGlu = O=C(O)[C@H](CCC(=O)[*:2])N[*:1]; AEEA = NCCOCCOCC(=O)O

Biological target: T1, Amylin 3(a) receptor (human calcitonin receptor (CTa) with RAMP-3) (Homo sapiens, UniProt O60896+P30988)
T1 construct: expressed in transfected cells; host or cells: BHK570 (baby hamster kidney) cells, stably transfected, with CRE-luciferase reporter
T1 sequence (O60896 24-148): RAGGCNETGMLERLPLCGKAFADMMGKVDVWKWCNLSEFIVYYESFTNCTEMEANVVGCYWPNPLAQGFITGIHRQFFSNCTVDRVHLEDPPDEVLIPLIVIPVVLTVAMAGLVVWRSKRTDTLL
T1 sequence (P30988 25-474): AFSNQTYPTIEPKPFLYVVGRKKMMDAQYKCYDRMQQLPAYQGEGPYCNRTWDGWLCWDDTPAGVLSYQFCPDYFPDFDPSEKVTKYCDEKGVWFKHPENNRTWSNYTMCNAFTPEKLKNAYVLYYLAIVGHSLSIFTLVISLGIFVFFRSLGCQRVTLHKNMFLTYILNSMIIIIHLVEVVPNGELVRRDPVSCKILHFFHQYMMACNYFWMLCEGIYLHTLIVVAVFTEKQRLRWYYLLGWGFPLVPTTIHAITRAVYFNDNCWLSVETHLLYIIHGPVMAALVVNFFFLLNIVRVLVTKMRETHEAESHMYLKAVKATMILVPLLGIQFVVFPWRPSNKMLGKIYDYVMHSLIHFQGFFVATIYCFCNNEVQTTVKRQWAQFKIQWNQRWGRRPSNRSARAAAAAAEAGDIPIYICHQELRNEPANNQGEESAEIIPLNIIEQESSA
Experiment: Amylin luciferase assay (CRE-luciferase reporter in BHK Amylin 3(a)//CRE-luc cells)
Assay type: cell-based
In short: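 BHK570 cells stably expressing human calcitonin receptor (CTa), RAMP-3 and a CRE-luciferase reporter, about 20.000 cells/well, were exposed to standard or sample for 4 h at 37° C in phenol-red-free DMEM with 10% FBS and 10 mM Hepes pH 7,4. Luminescence was read after 30 min with LucLite at room temperature.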

[1] = BHK570 cells with human calcitonin receptor (CTa), RAMP-3 and CRE-luciferase reporter, 4 hours incubation, read-out: Potency luciferase assay

Compound | EC50 [1] [nM] | EC50 [nM]
CC(C)C[C@H](NC(=O)[C@H](CC(N)=O)NC(=O)[C@H](CCC(N)=O)NC(=O)[C@H](CO)NC(=O)[C@H](CO)NC(=O)[C@H](CCCNC(=N)N)NC(=O)[C@@H](NC(=O)[C@H](CC(C)C)NC(=O)[C@H](Cc1ccccc1)NC(=O)[C@H](CC(N)=O)NC(=O)[C@H](C)NC(=O)[C@H](CC(C)C)NC(=O)[C@H](CCCNC(=N)N)NC(=O)[C@H](CCC(N)=O)NC(=O)[C@@H](NC(=O)[C@H](C)NC(=O)[C@@H]1CSSC[C@H](NC(=O)[C@@H](N)CCCCN)C(=O)N[C@@H](CCCCNC(=O)CC[C@H](NC(=O)CCCCCCCCCCCCCCCCC(=O)O)C(=O)O)C(=O)N[C@@H]([C@@H](C)O)C(=O)N[C@@H](C)C(=O)N[C@@H]([C@@H](C)O)C(=O)N1)[C@@H](C)O)C(C)C)C(=O)NCC(=O)N1CCC[C@H]1C(=O)N[C@H](C(=O)N[C@@H](CC(C)C)C(=O)N1CCC[C@H]1C(=O)N1CCC[C@H]1C(=O)N[C@H](C(=O)N[C@@H](CC(N)=O)C(=O)N[C@H](C(=O)NCC(=O)N[C@@H](CO)C(=O)N[C@@H](CC(N)=O)C(=O)N[C@H](C(=O)N[C@@H](Cc1ccc(O)cc1)C(N)=O)[C@@H](C)O)C(C)C)[C@@H](C)O)C(C)C [Example 28, N-epsilon3-[(S)-4-Carboxy-4-(17-carboxyheptadecanoylamino)butyryl]-[Lys3,Arg18,Gln21,Leu23,Val26]-pramlintide (1-37)] (H-KCK([γGlu-C18 diacid])TATCATQRLANFLVRSSQNLGPVLPPTNVGSNTY-NH2; disulfide 2-7) | 0.04 | –
CC[C@H](C)[C@H](NC(=O)[C@@H]1CCCN1C(=O)CNC(=O)[C@H](Cc1ccccc1)NC(=O)[C@H](CC(N)=O)NC(=O)[C@H](CC(N)=O)NC(=O)[C@H](CO)NC(=O)[C@H](CO)NC(=O)[C@H](Cc1c[nH]cn1)NC(=O)[C@@H](NC(=O)[C@H](CC(C)C)NC(=O)[C@H](Cc1ccccc1)NC(=O)[C@H](CC(N)=O)NC(=O)[C@H](C)NC(=O)[C@H](CC(C)C)NC(=O)[C@H](CCCNC(=N)N)NC(=O)[C@H](CCC(N)=O)NC(=O)[C@@H](NC(=O)[C@H](C)NC(=O)[C@@H]1CSSC[C@H](NC(=O)[C@@H](N)CCCCN)C(=O)N[C@@H](CCCCNC(=O)COCCOCCNC(=O)COCCOCCNC(=O)CCCCCCCCCCCCCCCCCCC(=O)O)C(=O)N[C@@H]([C@@H](C)O)C(=O)N[C@@H](C)C(=O)N[C@@H]([C@@H](C)O)C(=O)N1)[C@@H](C)O)C(C)C)C(=O)N[C@@H](CC(C)C)C(=O)N1CCC[C@H]1C(=O)N1CCC[C@H]1C(=O)N[C@H](C(=O)N[C@@H](CC(N)=O)C(=O)N[C@H](C(=O)NCC(=O)N[C@@H](CO)C(=O)N[C@@H](CC(N)=O)C(=O)N[C@H](C(=O)N[C@@H](Cc1ccc(O)cc1)C(N)=O)[C@@H](C)O)C(C)C)[C@@H](C)O [Example 13, N-epsilon3-(2-{2-[2-(2-{2-[2-(19-carboxynonadecanoylamino)ethoxy]ethoxy}acetylamino)ethoxy]ethoxy}acetyl)-[Lys3]-pramlintide (1-37)] (H-KCK([AEEA-AEEA-C20 diacid])TATCATQRLANFLVHSSNNFGPILPPTNVGSNTY-NH2; disulfide 2-7; N-terminus assumed) | 0.06 | –
CC[C@H](C)[C@H](NC(=O)[C@@H]1CCCN1C(=O)CNC(=O)[C@H](Cc1ccccc1)NC(=O)[C@H](CC(N)=O)NC(=O)[C@H](CC(N)=O)NC(=O)[C@H](CO)NC(=O)[C@H](CO)NC(=O)[C@H](Cc1c[nH]cn1)NC(=O)[C@@H](NC(=O)[C@H](CC(C)C)NC(=O)[C@H](Cc1ccccc1)NC(=O)[C@H](CC(N)=O)NC(=O)[C@H](C)NC(=O)[C@H](CC(C)C)NC(=O)[C@H](CCCNC(=N)N)NC(=O)[C@H](CCC(N)=O)NC(=O)[C@@H](NC(=O)[C@H](C)NC(=O)[C@@H]1CSSC[C@H](N)C(=O)N[C@@H](CCCCNC(=O)CC[C@H](NC(=O)CCCS(=O)(=O)NC(=O)CCCCCCCCCCCCCCCc2nnn[nH]2)C(=O)O)C(=O)N[C@@H]([C@@H](C)O)C(=O)N[C@@H](C)C(=O)N[C@@H]([C@@H](C)O)C(=O)N1)[C@@H](C)O)C(C)C)C(=O)N[C@@H](CC(C)C)C(=O)N1CCC[C@H]1C(=O)N1CCC[C@H]1C(=O)N[C@H](C(=O)N[C@@H](CC(N)=O)C(=O)N[C@H](C(=O)NCC(=O)N[C@@H](CO)C(=O)N[C@@H](CC(N)=O)C(=O)N[C@H](C(=O)N[C@@H](Cc1ccc(O)cc1)C(N)=O)[C@@H](C)O)C(C)C)[C@@H](C)O [Example 42, N-epsilon3-{4-carboxy-4-[4-(16-1H-tetrazol-5-ylhexadecanoylsulfamoyl)butyrylamino]butyryl}-[Lys3]-pramlintide (2-37)] (H-CK([γGlu-X1])TATCATQRLANFLVHSSNNFGPILPPTNVGSNTY-NH2; disulfide 1-6; N-terminus and C-terminus assumed) | – | 0.04
CC(C)C[C@H](NC(=O)[C@H](CC(N)=O)NC(=O)[C@H](CCC(N)=O)NC(=O)[C@H](CO)NC(=O)[C@H](CO)NC(=O)[C@H](CCCNC(=N)N)NC(=O)[C@@H](NC(=O)[C@H](CC(C)C)NC(=O)[C@H](Cc1ccccc1)NC(=O)[C@H](CC(N)=O)NC(=O)[C@H](C)NC(=O)[C@H](CC(C)C)NC(=O)[C@H](CCCNC(=N)N)NC(=O)[C@H](CCC(N)=O)NC(=O)[C@@H](NC(=O)[C@H](C)NC(=O)[C@@H]1CSSC[C@H](NC(=O)[C@H](CCC(=O)O)NC(=O)[C@H](CCC(=O)O)NC(=O)[C@H](CCC(=O)O)NC(=O)[C@H](CCC(=O)O)NC(=O)CCCCCCCCCCCCCCCCCCC(=O)O)C(=O)N[C@@H](CCC(N)=O)C(=O)N[C@@H]([C@@H](C)O)C(=O)N[C@@H](C)C(=O)N[C@@H]([C@@H](C)O)C(=O)N1)[C@@H](C)O)C(C)C)C(=O)NCC(=O)N1CCC[C@H]1C(=O)N[C@H](C(=O)N[C@@H](CC(C)C)C(=O)N1CCC[C@H]1C(=O)N1CCC[C@H]1C(=O)N[C@H](C(=O)N[C@@H](CC(N)=O)C(=O)N[C@H](C(=O)NCC(=O)N[C@@H](CO)C(=O)N[C@@H](CC(N)=O)C(=O)N[C@H](C(=O)N[C@@H](Cc1ccc(O)cc1)C(N)=O)[C@@H](C)O)C(C)C)[C@@H](C)O)C(C)C [Example 37, N-alpha-(19-carboxynonadecanoyl)-Glu-Glu-Glu-[Glu1,Gln3,Arg18,Gln21,Leu23,Val26]-pramlintide (1-37)] ({C20 diacid}-EEEECQTATCATQRLANFLVRSSQNLGPVLPPTNVGSNTY-NH2; disulfide 5-10) | 2 | –
